Experimental data from EP4806912A1, “DUAL AGONIST COMPOUND” (Chengdu Aoda Biotechnology Co., Ltd, priority 2023, dated 2025).

How the values were obtained:
[1] = molecular target: T1, GLP-1R (Homo sapiens, UniProt P43220); experiment: GLP-1 activity test (cAMP, chemiluminescence, CHO-K1 cell line stably expressing GLP-1R); type: cell-based; details: relative luminescence units, read-out: GLP-1 activity [EC50(pmol)]
T1 construct: expressed in transfected cells; host or cells: CHO-K1
Procedure: (§1) Upon stimulation by a specific agonist, GLP-1R activates the intracellular adenylate cyclase signaling pathway, resulting in an increase in cAMP levels and ultimately leading to insulin production and secretion. A cell line stably transfected with GLP-1R was stimulated with test compounds, thereby rapidly increasing intracellular cAMP levels. The relative luminescence units (RLU) of cells stimulated at various concentrations were measured by a chemiluminescence method, and the EC50 value of the agonist was calculated accordingly. This activity test method is currently a commonly used method for evaluating GLP-1 receptor agonist activity both domestically and internationally.
A CHO-K1 cell line stably expressing GLP-1R was used. The stable cells were stimulated with agonists at different concentrations, and the relative luminescence units after stimulation at each concentration were measured to calculate the EC50 value of the agonist.

[2] = molecular target: T2, GCG-R (Homo sapiens, UniProt P47871); experiment: GCG activity test (cAMP, chemiluminescence, CHO-K1 cell line stably expressing GCG-R); type: cell-based; details: relative luminescence units, read-out: GCG activity [EC50(nmol)]
T2 construct: expressed in transfected cells; host or cells: CHO-K1
Procedure: as §1, with “agonist, GCG-R” for “agonist, GLP-1R”, “with GCG-R” for “with GLP-1R”, “activity assay” for “activity test”, “evaluating GCG” for “evaluating GLP-1”
A CHO-K1 cell line stably expressing GCG-R was used. The stable cells were stimulated with agonists at different concentrations, and the relative luminescence units after stimulation at each concentration were measured to calculate the EC50 value of the agonist.

T1 sequence (P43220 24-463, species assumed): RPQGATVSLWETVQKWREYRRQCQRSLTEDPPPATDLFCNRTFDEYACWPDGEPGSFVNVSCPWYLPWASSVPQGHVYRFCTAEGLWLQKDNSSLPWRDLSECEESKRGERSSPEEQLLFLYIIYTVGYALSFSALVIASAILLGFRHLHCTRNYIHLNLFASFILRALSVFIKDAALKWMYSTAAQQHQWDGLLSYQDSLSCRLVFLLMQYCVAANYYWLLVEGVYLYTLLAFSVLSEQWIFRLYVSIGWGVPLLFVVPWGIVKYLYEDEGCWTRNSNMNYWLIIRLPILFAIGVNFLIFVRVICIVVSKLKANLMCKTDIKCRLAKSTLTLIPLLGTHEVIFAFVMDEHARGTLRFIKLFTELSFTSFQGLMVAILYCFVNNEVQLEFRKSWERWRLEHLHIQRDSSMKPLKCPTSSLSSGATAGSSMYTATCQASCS
T2 sequence (P47871 26-477, species assumed): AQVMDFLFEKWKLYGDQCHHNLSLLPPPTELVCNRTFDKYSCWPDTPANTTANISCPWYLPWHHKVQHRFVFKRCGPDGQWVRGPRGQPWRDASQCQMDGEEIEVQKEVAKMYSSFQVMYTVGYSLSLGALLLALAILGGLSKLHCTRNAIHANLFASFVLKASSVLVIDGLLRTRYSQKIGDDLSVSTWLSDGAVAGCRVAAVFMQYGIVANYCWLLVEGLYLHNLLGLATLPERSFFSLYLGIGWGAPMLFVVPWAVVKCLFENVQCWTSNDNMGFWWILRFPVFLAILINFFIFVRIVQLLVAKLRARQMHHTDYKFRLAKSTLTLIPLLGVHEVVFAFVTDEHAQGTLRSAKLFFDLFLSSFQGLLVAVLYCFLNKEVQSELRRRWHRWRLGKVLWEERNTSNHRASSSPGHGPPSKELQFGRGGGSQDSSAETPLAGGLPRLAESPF

Structure (SMILES)	EC50 [1] [nM]	EC50 [2] [nM]
CC(C)C[C@H](NC(=O)[C@H](CC(C)C)NC(=O)[C@H](Cc1c[nH]c2ccccc12)NC(=O)[C@H](CCC(=O)O)NC(=O)[C@@H](NC(=O)[C@H](Cc1ccccc1)NC(=O)[C@H](CCC(=O)O)NC(=O)[C@H](CCCCNC(=O)COCCOCCNC(=O)COCCOCCNC(=O)CC[C@H](NC(=O)CCCCCCCCCCCCCCCCCCC(=O)O)C(=O)O)NC(=O)[C@H](C)NC(=O)[C@H](CCCCN)NC(=O)[C@H](CCCCN)NC(=O)[C@H](CCC(=O)O)NC(=O)[C@H](CC(=O)O)NC(=O)[C@H](CC(C)C)NC(=O)[C@H](Cc1ccc(O)cc1)NC(=O)[C@H](CCCCN)NC(=O)[C@H](CO)NC(=O)[C@H](Cc1ccc(O)cc1)NC(=O)[C@H](CC(=O)O)NC(=O)[C@H](CO)NC(=O)[C@@H](NC(=O)C(C)(Cc1ccccc1F)NC(=O)[C@@H](NC(=O)CNC(=O)[C@H](CCC(N)=O)NC(=O)C(C)(C)NC(=O)[C@@H](N)Cc1c[nH]cn1)[C@@H](C)O)[C@@H](C)O)C(C)C)C(=O)N[C@@H](CCC(=O)O)C(=O)NCCCCC(=O)N1CCC[C@H]1C(=O)N[C@@H](CO)C(=O)N[C@@H](CO)C(=O)NCC(=O)N[C@@H](C)C(=O)N1CCC[C@H]1C(=O)N1CCC[C@H]1C(=O)N1CCC[C@H]1C(=O)N[C@@H](CO)C(N)=O (stereo partly drawn) [Compound 15]	0.0835	1.8
CC(C)C[C@H](NC(=O)[C@H](CC(C)C)NC(=O)[C@H](Cc1c[nH]c2ccccc12)NC(=O)[C@H](CCC(=O)O)NC(=O)[C@@H](NC(=O)[C@H](Cc1ccccc1)NC(=O)[C@H](CCC(=O)O)NC(=O)[C@H](CCCCNC(=O)COCCOCCOCCOCCOCCNC(=O)CCCC[C@H](NC(=O)CCCCCCCCCCCCCCCCCCC(=O)O)C(=O)O)NC(=O)[C@H](C)NC(=O)[C@H](CCCCN)NC(=O)[C@H](CCCCN)NC(=O)[C@H](CCC(=O)O)NC(=O)[C@H](CC(=O)O)NC(=O)[C@H](CC(C)C)NC(=O)[C@H](Cc1ccc(O)cc1)NC(=O)[C@H](CCCCN)NC(=O)[C@H](CO)NC(=O)[C@H](Cc1ccc(O)cc1)NC(=O)[C@H](CC(=O)O)NC(=O)[C@H](CO)NC(=O)[C@@H](NC(=O)C(C)(Cc1ccccc1F)NC(=O)[C@@H](NC(=O)CNC(=O)[C@H](CCC(N)=O)NC(=O)C(C)(C)NC(=O)[C@@H](N)Cc1c[nH]cn1)[C@@H](C)O)[C@@H](C)O)C(C)C)C(=O)N[C@@H](CCC(=O)O)C(=O)NCCCCC(=O)N1CCC[C@H]1C(=O)N[C@@H](CO)C(=O)N[C@@H](CO)C(=O)NCC(=O)N[C@@H](C)C(=O)N1CCC[C@H]1C(=O)N1CCC[C@H]1C(=O)N1CCC[C@H]1C(=O)N[C@@H](CO)C(N)=O (stereo partly drawn) [Compound 11]	0.0872	1.5
CC(C)C[C@H](NC(=O)[C@H](CC(C)C)NC(=O)[C@H](Cc1c[nH]c2ccccc12)NC(=O)[C@H](CCC(=O)O)NC(=O)[C@@H](NC(=O)[C@H](Cc1ccccc1)NC(=O)[C@H](CCC(=O)O)NC(=O)[C@H](CCCCNC(=O)COCCOCCOCCOCCOCCNC(=O)CCCC[C@H](NC(=O)CCCCCCCCCCCCCCCCCCC(=O)O)C(=O)O)NC(=O)[C@H](C)NC(=O)[C@H](CCCCN)NC(=O)[C@H](CCCCN)NC(=O)[C@H](CCC(=O)O)NC(=O)[C@H](CC(=O)O)NC(=O)[C@H](CC(C)C)NC(=O)[C@H](Cc1ccc(O)cc1)NC(=O)[C@H](CCCCN)NC(=O)[C@H](CO)NC(=O)[C@H](Cc1ccc(O)cc1)NC(=O)[C@H](CC(=O)O)NC(=O)[C@H](CO)NC(=O)[C@@H](NC(=O)C(C)(Cc1ccccc1)NC(=O)[C@@H](NC(=O)CNC(=O)[C@H](CCC(N)=O)NC(=O)C(C)(C)NC(=O)[C@@H](N)Cc1c[nH]cn1)[C@@H](C)O)[C@@H](C)O)C(C)C)C(=O)N[C@@H](CCC(=O)O)C(=O)NCCCCC(=O)N1CCC[C@H]1C(=O)N[C@@H](CO)C(=O)N[C@@H](CO)C(=O)NCC(=O)N[C@@H](C)C(=O)N1CCC[C@H]1C(=O)N1CCC[C@H]1C(=O)N1CCC[C@H]1C(=O)N[C@@H](CO)C(N)=O (stereo partly drawn) [Compound 7]	0.0914	2.3
CC(C)C[C@H](NC(=O)[C@H](CC(C)C)NC(=O)[C@H](Cc1c[nH]c2ccccc12)NC(=O)[C@H](CCC(=O)O)NC(=O)[C@@H](NC(=O)[C@H](Cc1ccccc1)NC(=O)[C@H](CCC(=O)O)NC(=O)[C@H](CCCCNC(=O)COCCOCCOCCOCCOCCNC(=O)CCCCC[C@H](NC(=O)CCCCCCCCCCCCCCCCCCC(=O)O)C(=O)O)NC(=O)[C@H](C)NC(=O)[C@H](CCCCN)NC(=O)[C@H](CCCCN)NC(=O)[C@H](CCC(=O)O)NC(=O)[C@H](CC(=O)O)NC(=O)[C@H](CC(C)C)NC(=O)[C@H](Cc1ccc(O)cc1)NC(=O)[C@H](CCCCN)NC(=O)[C@H](CO)NC(=O)[C@H](Cc1ccc(O)cc1)NC(=O)[C@H](CC(=O)O)NC(=O)[C@H](CO)NC(=O)[C@@H](NC(=O)C(C)(Cc1ccccc1)NC(=O)[C@@H](NC(=O)CNC(=O)[C@H](CCC(N)=O)NC(=O)C(C)(C)NC(=O)[C@@H](N)Cc1c[nH]cn1)[C@@H](C)O)[C@@H](C)O)C(C)C)C(=O)N[C@@H](CCC(=O)O)C(=O)NCCCCC(=O)N1CCC[C@H]1C(=O)N[C@@H](CO)C(=O)N[C@@H](CO)C(=O)NCC(=O)N[C@@H](C)C(=O)N1CCC[C@H]1C(=O)N1CCC[C@H]1C(=O)N1CCC[C@H]1C(=O)N[C@@H](CO)C(N)=O (stereo partly drawn) [Compound 8]	0.105	2.6
CC(C)C[C@H](NC(=O)[C@H](CC(C)C)NC(=O)[C@H](Cc1c[nH]c2ccccc12)NC(=O)[C@H](CCC(=O)O)NC(=O)[C@@H](NC(=O)[C@H](Cc1ccccc1)NC(=O)[C@H](CCC(=O)O)NC(=O)[C@H](CCCCNC(=O)COCCOCCNC(=O)COCCOCCNC(=O)CC[C@H](NC(=O)CCCCCCCCCCCCCCCCCCC(=O)O)C(=O)O)NC(=O)[C@H](C)NC(=O)[C@H](CCCCN)NC(=O)[C@H](CCCCN)NC(=O)[C@H](CCC(=O)O)NC(=O)[C@H](CC(=O)O)NC(=O)[C@H](CC(C)C)NC(=O)[C@H](Cc1ccc(O)cc1)NC(=O)[C@H](CCCCN)NC(=O)[C@H](CO)NC(=O)[C@H](Cc1ccc(O)cc1)NC(=O)[C@H](CC(=O)O)NC(=O)[C@H](CO)NC(=O)[C@@H](NC(=O)C(C)(Cc1ccccc1)NC(=O)[C@@H](NC(=O)CNC(=O)[C@H](CCC(N)=O)NC(=O)C(C)(C)NC(=O)[C@@H](N)Cc1c[nH]cn1)[C@@H](C)O)[C@@H](C)O)C(C)C)C(=O)N[C@@H](CCC(=O)O)C(=O)NCCCCC(=O)N1CCC[C@H]1C(=O)N[C@@H](CO)C(=O)N[C@@H](CO)C(=O)NCC(=O)N[C@@H](C)C(=O)N1CCC[C@H]1C(=O)N1CCC[C@H]1C(=O)N1CCC[C@H]1C(=O)N[C@@H](CO)C(N)=O (stereo partly drawn) [Compound 14]	0.088	2.5
CC(C)C[C@H](NC(=O)[C@H](CC(C)C)NC(=O)[C@H](Cc1c[nH]c2ccccc12)NC(=O)[C@H](CCC(=O)O)NC(=O)[C@@H](NC(=O)[C@H](Cc1ccccc1)NC(=O)[C@H](CCC(=O)O)NC(=O)[C@H](CCCCNC(=O)COCCOCCOCCOCCOCCNC(=O)CCCCC[C@H](NC(=O)CCCCCCCCCCCCCCCCCCC(=O)O)C(=O)O)NC(=O)[C@H](C)NC(=O)[C@H](CCCCN)NC(=O)[C@H](CCCCN)NC(=O)[C@H](CCC(=O)O)NC(=O)[C@H](CC(=O)O)NC(=O)[C@H](CC(C)C)NC(=O)[C@H](Cc1ccc(O)cc1)NC(=O)[C@H](CCCCN)NC(=O)[C@H](CO)NC(=O)[C@H](Cc1ccc(O)cc1)NC(=O)[C@H](CC(=O)O)NC(=O)[C@H](CO)NC(=O)[C@@H](NC(=O)C(C)(Cc1ccccc1F)NC(=O)[C@@H](NC(=O)CNC(=O)[C@H](CCC(N)=O)NC(=O)C(C)(C)NC(=O)[C@@H](N)Cc1c[nH]cn1)[C@@H](C)O)[C@@H](C)O)C(C)C)C(=O)N[C@@H](CCC(=O)O)C(=O)NCCCCC(=O)N1CCC[C@H]1C(=O)N[C@@H](CO)C(=O)N[C@@H](CO)C(=O)NCC(=O)N[C@@H](C)C(=O)N1CCC[C@H]1C(=O)N1CCC[C@H]1C(=O)N1CCC[C@H]1C(=O)N[C@@H](CO)C(N)=O (stereo partly drawn) [Compound 12]	0.0954	1.8
